Experimental data as given in ChEMBL document CHEMBL1136514, “Synthesis and evaluation of delta-lactams (piperazones) as elastase inhibitors” (Bioorg Med Chem Lett, 2003).

Key:
[1] = biological target: T1, Neutrophil elastase (Homo sapiens, UniProt P08246); test: Inhibitory concentration against human neutrophil elastase (HNE); No inhibition
T1 sequence (P08246 whole entry): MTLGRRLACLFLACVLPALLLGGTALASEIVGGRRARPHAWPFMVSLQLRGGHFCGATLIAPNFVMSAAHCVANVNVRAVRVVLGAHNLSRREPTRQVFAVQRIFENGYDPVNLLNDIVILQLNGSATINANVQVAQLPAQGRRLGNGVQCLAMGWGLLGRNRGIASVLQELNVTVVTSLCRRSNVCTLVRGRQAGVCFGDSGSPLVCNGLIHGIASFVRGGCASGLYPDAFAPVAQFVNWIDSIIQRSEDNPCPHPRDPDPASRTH

[2] = biological target: T1, Neutrophil elastase; test: Inhibitory concentration against human neutrophil elastase (HNE)
[3] = biological target: T2, Chymotrypsin-like elastase family member 2A (Sus scrofa, UniProt P08419); test: Inhibitory concentration against porcine pancreatic elastase (PPE); No inhibition
T2 sequence (P08419 whole entry): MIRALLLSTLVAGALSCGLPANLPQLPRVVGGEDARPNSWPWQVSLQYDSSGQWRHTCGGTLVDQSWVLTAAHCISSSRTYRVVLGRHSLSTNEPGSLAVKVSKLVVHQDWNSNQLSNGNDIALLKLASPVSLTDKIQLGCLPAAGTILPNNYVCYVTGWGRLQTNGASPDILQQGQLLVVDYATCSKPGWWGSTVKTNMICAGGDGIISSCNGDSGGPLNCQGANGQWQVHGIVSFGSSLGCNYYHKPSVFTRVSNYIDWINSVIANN

Row | Structure (SMILES) | IC50 [1] | IC50 [2] | IC50 [3]
1 | CCC(C)[C@H]1C(=O)N(Cc2ccccc2)CCN1S(=O)(=O)c1ccc(C)cc1 (stereo partly specified) | Not Active |  | 
2 | Cc1ccc(S(=O)(=O)N2CCN(Cc3ccccc3)C(=O)[C@@H]2CC(C)C)cc1 |  | 28 µM | 
3 | CCC(C)[C@H]1C(=O)NCCN1C(=O)OC(C)(C)C (stereo partly specified) | Not Active |  | Not Active
4 | CCC(C)[C@@H]1NCCNC1=O (stereo partly specified) | Not Active |  | Not Active
5 | CCC(C)[C@@H]1NCCN(Cc2ccccc2)C1=O (stereo partly specified) | Not Active |  | Not Active
6 | CC(C)C[C@H]1C(=O)NCCN1C(=O)OC(C)(C)C | Not Active |  | Not Active
7 | CC(C)C[C@@H]1NCCN(Cc2ccccc2)C1=O | Not Active |  | Not Active
8 | CC(C)C[C@@H]1NCCNC1=O | Not Active |  | Not Active
9 | CCC(C)[C@H]1C(=O)N(S(=O)(=O)c2ccc(C)cc2)CCN1S(=O)(=O)c1ccc(C)cc1 (stereo partly specified) | Not Active |  | Not Active
